Laboratory results: ChEMBL document CHEMBL1201862, “PubChem BioAssay data set” (2004)
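Dose response: 5 concentrations. Exposure: 48 h. Format: 96-well plates. Endpoint: linear interpolation; highest concentration if not reached. GI50: concentration for 50% inhibition of growth.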 Calls of active or inactive are those of the source. Cut-off read from the data, not from the text of the source: active = GI50 up to about 1.1 µM and inactive = higher.

What was measured:
Test in all cases: NCI-60 cell line screen, 48 h
SK-MEL-5 = system: SK-MEL-5
NCI-H460 = system: NCI-H460
OVCAR-5 = system: OVCAR-5
SF-539 = system: SF-539
RPMI-8226 = system: RPMI-8226
M14 = system: M14
K562 = system: K562
SF-295 = system: SF-295
HT-29 = system: HT-29
CCRF-CEM = system: CCRF-CEM
NCI-H23 = system: NCI-H23
HCT-15 = system: HCT-15
SK-OV-3 = system: SK-OV-3
HOP-62 = system: HOP-62
NCI-H522 = system: NCI-H522
SW-620 = system: SW-620
RXF 393 = system: RXF 393
HOP-92 = system: HOP-92

Row | SMILES | GI50 (SK-MEL-5) | GI50 (NCI-H460) | GI50 (OVCAR-5) | GI50 (SF-539) | GI50 (RPMI-8226) | GI50 (M14) | GI50 (K562) | GI50 (SF-295) | GI50 (HT-29) | GI50 (CCRF-CEM) | GI50 (NCI-H23) | GI50 (HCT-15) [µM] | GI50 (SK-OV-3) | GI50 (HOP-62) | GI50 (NCI-H522) | GI50 (SW-620) | GI50 (RXF 393) | GI50 (HOP-92)
1 | CO/S(=N/S(=O)(=O)c1ccccc1)c1ccccc1[N+](=O)[O-] (stereo not drawn) | > 100 µM (inactive) | > 100 µM (inactive) | > 100 µM (inactive) | > 100 µM (inactive) | > 100 µM (inactive) | > 100 µM (inactive) | > 100 µM (inactive) | > 100 µM (inactive) | > 100 µM (inactive) | > 100 µM (inactive) | > 100 µM (inactive) | > 100 | > 100 µM (inactive) | > 100 µM (inactive) | > 100 µM (inactive) | > 100 µM (inactive) | – | –
2 | c1ccc(SCCCC(Sc2ccccc2)Sc2ccccc2)cc1 | > 100 µM (inactive) | > 100 µM (inactive) | – | > 100 µM (inactive) | > 100 µM (inactive) | > 100 µM (inactive) | > 100 µM (inactive) | > 100 µM (inactive) | – | > 100 µM (inactive) | > 100 µM (inactive) | > 100 | > 100 µM (inactive) | > 100 µM (inactive) | – | > 100 µM (inactive) | > 100 µM (inactive) | 49.9 µM (inactive)
3 | NC1=NN(c2ccccc2)C(=O)C1C(=O)CCC(=O)Nc1cccc(C(F)(F)F)c1 (stereo not drawn) | > 100 µM (inactive) | > 100 µM (inactive) | > 100 µM (inactive) | > 100 µM (inactive) | – | 41.2 µM (inactive) | 35.2 µM (inactive) | > 100 µM (inactive) | > 100 µM (inactive) | > 100 µM (inactive) | > 100 µM (inactive) | 30.8 | > 100 µM (inactive) | > 100 µM (inactive) | – | 42.6 µM (inactive) | > 100 µM (inactive) | > 100 µM (inactive)
4 | CC(C)(C)/N=C1/CC(C)(C)c2ccccc2/C(=N\c2ccccc2)S1 | 24.6 µM (inactive) | 30.1 µM (inactive) | 37.9 µM (inactive) | 60.4 µM (inactive) | 11.2 µM (inactive) | 39.5 µM (inactive) | 26.4 µM (inactive) | 32.4 µM (inactive) | 35 µM (inactive) | 26.9 µM (inactive) | 27.7 µM (inactive) | 37.2 | 57 µM (inactive) | 44.7 µM (inactive) | 15.2 µM (inactive) | 44 µM (inactive) | 21.4 µM (inactive) | –
5 | O=C1C(=O)N(c2ccc(Cl)c(Cl)c2)C(=O)C(=O)C1c1nc2ccccc2o1 | – | > 100 µM (inactive) | > 100 µM (inactive) | > 100 µM (inactive) | 24.7 µM (inactive) | 80.4 µM (inactive) | 36.6 µM (inactive) | > 100 µM (inactive) | 41.6 µM (inactive) | – | 68.7 µM (inactive) | 50.2 | > 100 µM (inactive) | > 100 µM (inactive) | 57.4 µM (inactive) | 56.5 µM (inactive) | – | > 100 µM (inactive)
6 | CCP(C)(=O)CC | > 100 µM (inactive) | > 100 µM (inactive) | > 100 µM (inactive) | > 100 µM (inactive) | > 100 µM (inactive) | > 100 µM (inactive) | > 100 µM (inactive) | > 100 µM (inactive) | > 100 µM (inactive) | > 100 µM (inactive) | > 100 µM (inactive) | > 100 | > 100 µM (inactive) | > 100 µM (inactive) | – | > 100 µM (inactive) | > 100 µM (inactive) | > 100 µM (inactive)
7 | CC(C)C(Sc1nc(-c2ccccc2)c(-c2ccccc2)[nH]1)C(=O)N/N=C/c1ccc(Cl)cc1 (stereo not drawn) | 16.7 µM (inactive) | 22.7 µM (inactive) | 22.6 µM (inactive) | 21.1 µM (inactive) | 19.7 µM (inactive) | 17.7 µM (inactive) | – | 22.8 µM (inactive) | 14.9 µM (inactive) | 21.7 µM (inactive) | 22.3 µM (inactive) | 17.5 | 27.2 µM (inactive) | 23.2 µM (inactive) | 20.7 µM (inactive) | 26.2 µM (inactive) | – | 21 µM (inactive)
8 | O=C(CCC(=O)Nc1ccc(Cl)c(Cl)c1)CC(=O)c1ccc(Cl)cc1 | – | > 100 µM (inactive) | > 100 µM (inactive) | > 100 µM (inactive) | > 100 µM (inactive) | > 100 µM (inactive) | > 100 µM (inactive) | > 100 µM (inactive) | > 100 µM (inactive) | > 100 µM (inactive) | > 100 µM (inactive) | > 100 | > 100 µM (inactive) | – | > 100 µM (inactive) | > 100 µM (inactive) | – | 24.8 µM (inactive)
9 | C#CCOCn1cnc2c(N)ncnc21 | > 100 µM (inactive) | > 100 µM (inactive) | > 100 µM (inactive) | > 100 µM (inactive) | > 100 µM (inactive) | > 100 µM (inactive) | > 100 µM (inactive) | > 100 µM (inactive) | > 100 µM (inactive) | > 100 µM (inactive) | > 100 µM (inactive) | – | > 100 µM (inactive) | > 100 µM (inactive) | > 100 µM (inactive) | > 100 µM (inactive) | – | > 100 µM (inactive)
10 | COC(=O)C1=CC(=O)[C@@H]2CCCC[C@H]12 | – | > 100 µM (inactive) | – | > 100 µM (inactive) | > 100 µM (inactive) | > 100 µM (inactive) | > 100 µM (inactive) | – | – | > 100 µM (inactive) | – | > 100 | > 100 µM (inactive) | > 100 µM (inactive) | > 100 µM (inactive) | > 100 µM (inactive) | > 100 µM (inactive) | –
11 | Cc1ccccc1C(=O)c1ccccc1O | > 100 µM (inactive) | > 100 µM (inactive) | > 100 µM (inactive) | > 100 µM (inactive) | – | > 100 µM (inactive) | > 100 µM (inactive) | > 100 µM (inactive) | > 100 µM (inactive) | > 100 µM (inactive) | > 100 µM (inactive) | > 100 | > 100 µM (inactive) | > 100 µM (inactive) | – | > 100 µM (inactive) | > 100 µM (inactive) | > 100 µM (inactive)
12 | N#CCCC(C#N)(C#N)CCC#N | > 100 µM (inactive) | > 100 µM (inactive) | – | > 100 µM (inactive) | > 100 µM (inactive) | > 100 µM (inactive) | > 100 µM (inactive) | > 100 µM (inactive) | > 100 µM (inactive) | > 10 µM (inactive) | > 100 µM (inactive) | > 100 | > 100 µM (inactive) | > 100 µM (inactive) | > 100 µM (inactive) | > 100 µM (inactive) | – | –
13 | CCC1(c2c(F)c(F)c(N)c(F)c2F)CCC(=O)NC1=O (stereo not drawn) | > 100 µM (inactive) | > 100 µM (inactive) | > 100 µM (inactive) | > 100 µM (inactive) | > 100 µM (inactive) | > 100 µM (inactive) | > 100 µM (inactive) | > 100 µM (inactive) | > 100 µM (inactive) | > 100 µM (inactive) | > 100 µM (inactive) | > 100 | > 100 µM (inactive) | > 100 µM (inactive) | > 100 µM (inactive) | > 100 µM (inactive) | – | > 100 µM (inactive)
